Data from patent US20240034729A9, “HETEROCYCLIC COMPOUND, INTERMEDIATE, PREPARATION METHOD THEREFOR AND APPLICATION THEREOF” (WUHAN LL SCIENCE AND TECHNOLOGY DEVELOPMENT CO., LTD., priority 2018, published 2024).
Read-outs that look alike come from different tables or passages of the source.

Target: hP2X3 (human purinergic P2X receptor subtype 3) (Homo sapiens (Human), UniProt P56373)
Assay: FLIPR calcium assay, hP2X3 expressed in HEK293 cells
Assay type: cell-based
Conditions: read-out: P2X3 IC50
[1] = HEK293 cells expressing hP2X3, agonist BZ-ATP 2.5 μM, class symbols

Chain of hP2X3 (human purinergic P2X receptor subtype 3) (P56373 whole entry): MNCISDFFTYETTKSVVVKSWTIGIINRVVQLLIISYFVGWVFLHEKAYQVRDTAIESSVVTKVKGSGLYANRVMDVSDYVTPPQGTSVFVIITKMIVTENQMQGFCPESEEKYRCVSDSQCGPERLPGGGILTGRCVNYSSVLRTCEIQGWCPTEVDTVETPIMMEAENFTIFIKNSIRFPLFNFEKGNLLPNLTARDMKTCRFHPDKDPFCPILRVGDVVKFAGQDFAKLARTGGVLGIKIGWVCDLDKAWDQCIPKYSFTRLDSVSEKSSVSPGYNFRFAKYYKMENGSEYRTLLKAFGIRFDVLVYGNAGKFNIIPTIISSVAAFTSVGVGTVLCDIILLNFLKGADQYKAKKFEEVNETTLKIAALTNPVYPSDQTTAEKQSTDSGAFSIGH

SMILES	IC50	IC50 [1]
COC(=O)N1CCO[C@@H](Cc2c(-c3c(F)cc(N4C(=O)C=CC4=O)cc3F)nc3cc(C)ccn23)C1 [Compound 28, methyl (S)-2-((2-(2,6-difluoro-4-(2,5-dioxo-2,5-dihydropyrrol-1-yl)phenyl)-7-methylimidazo[1,2-a]pyridin-3-yl)methyl)morpholine-4-carboxylate]	10 to 50 nM	–
CNC(=O)c1cc(F)c(-c2nc3n(c2C[C@H]2CN(C(=O)OC)CCO2)CCC(C)C3)c(F)c1 (stereo partly drawn) [Compound 44, methyl (2S)-2-((2-(2,6-difluoro-4-(methylcarbamoyl)phenyl)-7-methyl-5,6,7,8-tetrahydroimidazo[1,2-a]pyridin-3-yl)methyl)morpholine-4-carboxylate]	< 10 nM	–
CNC(=O)c1cc(F)c(C2=CC3C=C(C)C=CN3N2C[C@H]2CN(C(=O)OC)CCO2)c(F)c1 (stereo partly drawn) [Compound 41]	–	200 to 5000 nM
COC(=O)N1CCO[C@@H](Cc2c(-c3c(F)cc(NC(=O)c4ccccc4)cc3F)nc3cc(C)ccn23)C1 [Compound 84]	50 to 200 nM	–
COC(=O)N1CCO[C@@H](Cc2c(-c3c(F)cc(-n4ccoc4=O)cc3F)nc3cc(C)ccn23)C1 [Compound 99]	10 to 50 nM	–
CNC(=O)c1csc(-c2nc3cc(C)ccn3c2C[C@H]2CN(C(=O)OC)CCO2)c1F [Compound 23]	–	200 to 5000 nM
CNC(=O)c1cc(F)c(-c2nc3cc(C)ccn3c2C[C@H]2CN(C(=O)OC)CCN2)c(F)c1 [Compound 46]	–	200 to 5000 nM
CNC1(c2cc(F)c(-c3nc4cc(C)ccn4c3C[C@H]3CN(C(=O)OC)CCO3)c(F)c2)COC1 [Compound 69, methyl (S)-2-((2-(2,6-difluoro-4-(3-(methylamino)oxetan-3-yl)phenyl)-7-methylimidazo[1,2-a]pyridin-3-yl)methyl) morpholine-4-carboxylate]	10 to 50 nM	–
COC(=O)N1CCO[C@@H](Cc2c(-c3c(F)cc(-n4cncn4)cc3F)nc3cc(C)ccn23)C1 [Compound 142, methyl (S)-2-((2-(2,6-difluoro-4-(1H-1,2,4-triazol-1-yl)phenyl)-7-methylimidazo[1,2-a]pyridin-3-yl)methyl)morpholine-4-carboxylate]	< 10 nM	–
COC(=O)N1CCO[C@@H](Cc2c(-c3c(F)cc(S(N)(=O)=O)cc3F)nc3cc(Cl)c(F)cn23)C1 [Compound 183, methyl (S)-2-((7-chloro-2-(2,6-difluoro-4-sulfamoylphenyl)-6-fluoroimidazo[1,2-a]pyridin-3-yl)methyl)morpholine-4-carboxylate]	5.5 nM	–
COC(=O)N1CCO[C@@H](Cc2c(-c3c(F)cc(-n4ccc(S(N)(=O)=O)c4)cc3F)nc3cc(C)ccn23)C1 [Compound 134, methyl (S) 2-((2-(2,6-difluoro-4-(3-sulfamoyl-1H-pyrrol-1-yl)phenyl)-7-methylimidazo[1,2-a]pyridin-3-yl)methyl)morpholine-4-carboxylate]	10 to 50 nM	–
CNC(=O)c1cc(F)c(-c2oc3nc(C)ccc3c2C[C@H]2CN(C(=O)OC)CCO2)c(F)c1 [Compound 56, methyl (S)-2-((2-(2,6-difluoro-4-(methylcarbamoyl)phenyl)-6-methylfurano[2,3-b]pyridin-3-yl)methyl)morpholine-4-carboxylate]	< 10 nM	–
CNC(=O)c1cc(F)c(-c2nn3cc(C)ccc3c2C[C@H]2CN(C(=O)OC)CCO2)c(F)c1 [Compound 57]	< 10 nM	–
CNC(=O)Cc1cc(F)c(-c2nc3cc(C)ccn3c2C[C@H]2CN(C(=O)OC)CCO2)c(F)c1 [Compound 64, methyl (S)-2-((2-(4-(2-(methylamino)-2-oxoethyl)-2,6-difluorophenyl)-7-methylimidazo[1,2-a]pyridin-3-yl)methyl) morpholine-4-carboxylate]	50 to 200 nM	–
COC(=O)N1CCO[C@@H](Cc2c(-c3c(F)cc(O)cc3F)nc3cc(C)ccn23)C1 [Compound 35, methyl (S)-2-((2-(2,6-difluoro-4-hydroxyphenyl)-7-methylimidazo[1,2-a]pyridin-3-yl)methyl)morpholine-4-carboxylate]	–	200 to 5000 nM
